Source: the supplement of paper PMC10627819

Experiments:
S. aureus DSM 20231 [1] = assay: Bliss interaction score (quartile over a dose matrix) (fitness difference); higher = more antagonism (negative = synergy)
How it was run: (§1)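 The Bliss score takes observed fitness and subtracts the expected fitness, calculated as a product of single-drug fitness values. Those single-drug values were inferred from the combination data. Fitness is OD595 at entry into stationary phase divided by the plate's robust no-drug mean, capped at 1, and the score is summarised by quartiles across technical, biological and donor/recipient replicates.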

B. subtilis 168 [2] = assay: as above
How it was run: as §1

S. aureus Newman [3] = assay: as above
How it was run: as §1

S. pneumoniae D39V [4] = assay: as above
How it was run: as §1

S. aureus DSM 20231 [5] = assay: fitness (endpoint OD595 vs no drug) (fraction); higher = more growth
How it was run: (§2)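 Cultures at OD595 0.01 were dispensed into 384-well plates in TSB, LB Lennox or CY and incubated at 37 °C. Every 30 min for 14 h, OD595 was read and corrected by the first reading. Fitness is the optical density at entry into stationary phase relative to the robust mean of no-drug control wells, capped at 1.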

B. subtilis 168 [6] = assay: as above
How it was run: as §2

S. aureus Newman [7] = assay: as above
How it was run: as §2

S. pneumoniae D39V [8] = assay: as above
How it was run: as §2
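Wherever Bliss interaction score (quartile over a dose matrix) is given: first quartile when negative (synergy) and third quartile when positive (antagonism).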

CCC[C@@H]1C[C@@H](C(=O)N[C@@H]([C@H]2O[C@H](SC)[C@H](O)[C@@H](O)[C@H]2O)[C@H](C)Cl)N(C)C1 [Clindamycin] + COc1ccc(C[C@H](N)C(=O)N[C@H]2[C@@H](O)[C@H](n3cnc4c(N(C)C)ncnc43)O[C@@H]2CO)cc1 [Puromycin]
Conditions | Bliss interaction score
B. subtilis 168 [2] | 0.0463
S. aureus DSM 20231 [1] | -0.0327
S. aureus Newman [3] | -0.0646
S. pneumoniae D39V [4] | -0.123

one replicate
Conditions | fitness
B. subtilis 168 [6], first compound 0.0039 µg/mL, partner 0.39 µg/mL | 0.956
B. subtilis 168 [6], first compound 0.0039 µg/mL, partner 0.78 µg/mL | 0.946
B. subtilis 168 [6], first compound 0.0039 µg/mL, partner 1.56 µg/mL | ≥ 1
B. subtilis 168 [6], first compound 0.0078 µg/mL, partner 0.39 µg/mL | 0.853
B. subtilis 168 [6], first compound 0.0078 µg/mL, partner 0.78 µg/mL | 0.876
B. subtilis 168 [6], first compound 0.0078 µg/mL, partner 1.56 µg/mL | 0.92
B. subtilis 168 [6], first compound 0.0156 µg/mL, partner 0.39 µg/mL | 0.826
B. subtilis 168 [6], first compound 0.0156 µg/mL, partner 0.78 µg/mL | 0.907
B. subtilis 168 [6], first compound 0.0156 µg/mL, partner 1.56 µg/mL | 0.894
S. aureus DSM 20231 [5], first compound 0.0312 µg/mL, partner 3.12 µg/mL | 0.487
S. aureus DSM 20231 [5], first compound 0.0312 µg/mL, partner 6.24 µg/mL | 0.14
S. aureus DSM 20231 [5], first compound 0.0625 µg/mL, partner 3.12 µg/mL | 0.212
S. aureus DSM 20231 [5], first compound 0.0625 µg/mL, partner 6.24 µg/mL | 0.0867
S. aureus DSM 20231 [5], first compound 0.125 µg/mL, partner 3.12 µg/mL | 0.0522
S. aureus DSM 20231 [5], first compound 0.125 µg/mL, partner 6.24 µg/mL | 0.0492
S. pneumoniae D39V [8], first compound 0.015 µg/mL, partner 1 µg/mL | 0.746
S. pneumoniae D39V [8], first compound 0.015 µg/mL, partner 2 µg/mL | 0.84
S. pneumoniae D39V [8], first compound 0.015 µg/mL, partner 4 µg/mL | 0.583
S. pneumoniae D39V [8], first compound 0.03 µg/mL, partner 1 µg/mL | 0.591
S. pneumoniae D39V [8], first compound 0.03 µg/mL, partner 2 µg/mL | 0.625
S. pneumoniae D39V [8], first compound 0.03 µg/mL, partner 4 µg/mL | 0.218
S. pneumoniae D39V [8], first compound 0.06 µg/mL, partner 1 µg/mL | 0.177
S. pneumoniae D39V [8], first compound 0.06 µg/mL, partner 2 µg/mL | 0.102
S. pneumoniae D39V [8], first compound 0.06 µg/mL, partner 4 µg/mL | 0.114

Conditions | fitness
B. subtilis 168 [6], first compound 0.0625 µg/mL, partner 0.39 µg/mL | 0.534
B. subtilis 168 [6], first compound 0.0625 µg/mL, partner 0.78 µg/mL | 0.52
B. subtilis 168 [6], first compound 0.0625 µg/mL, partner 1.56 µg/mL | 0.564
B. subtilis 168 [6], first compound 0.125 µg/mL, partner 0.39 µg/mL | 0.378
B. subtilis 168 [6], first compound 0.125 µg/mL, partner 0.78 µg/mL | 0.355
B. subtilis 168 [6], first compound 0.125 µg/mL, partner 1.56 µg/mL | 0.366
B. subtilis 168 [6], first compound 0.25 µg/mL, partner 0.39 µg/mL | 0.347
B. subtilis 168 [6], first compound 0.25 µg/mL, partner 0.78 µg/mL | 0.335
B. subtilis 168 [6], first compound 0.25 µg/mL, partner 1.56 µg/mL | 0.344
S. aureus DSM 20231 [5], first compound 0.0625 µg/mL, partner 1.56 µg/mL | 0.179
S. aureus DSM 20231 [5], first compound 0.125 µg/mL, partner 0.39 µg/mL | 0.0343
S. aureus DSM 20231 [5], first compound 0.125 µg/mL, partner 0.78 µg/mL | 0.0367
S. aureus DSM 20231 [5], first compound 0.125 µg/mL, partner 1.56 µg/mL | 0.0565
S. aureus Newman [7], first compound 0.0312 µg/mL, partner 0.39 µg/mL | 0.741
S. aureus Newman [7], first compound 0.0312 µg/mL, partner 0.78 µg/mL | 0.717
S. aureus Newman [7], first compound 0.0312 µg/mL, partner 1.56 µg/mL | 0.713
S. aureus Newman [7], first compound 0.0625 µg/mL, partner 0.39 µg/mL | 0.395
S. aureus Newman [7], first compound 0.0625 µg/mL, partner 0.78 µg/mL | 0.412
S. aureus Newman [7], first compound 0.0625 µg/mL, partner 1.56 µg/mL | 0.326
S. aureus Newman [7], first compound 0.125 µg/mL, partner 0.39 µg/mL | 0.101
S. aureus Newman [7], first compound 0.125 µg/mL, partner 0.78 µg/mL | 0.115
S. aureus Newman [7], first compound 0.125 µg/mL, partner 1.56 µg/mL | 0.13
S. pneumoniae D39V [8], first compound 0.0125 µg/mL, partner 1 µg/mL | 0.766
S. pneumoniae D39V [8], first compound 0.0125 µg/mL, partner 2 µg/mL | 0.712
S. pneumoniae D39V [8], first compound 0.0125 µg/mL, partner 4 µg/mL | 0.473
S. pneumoniae D39V [8], first compound 0.025 µg/mL, partner 1 µg/mL | 0.533
S. pneumoniae D39V [8], first compound 0.025 µg/mL, partner 2 µg/mL | 0.475
S. pneumoniae D39V [8], first compound 0.025 µg/mL, partner 4 µg/mL | 0.33
S. pneumoniae D39V [8], first compound 0.05 µg/mL, partner 1 µg/mL | 0.261
S. pneumoniae D39V [8], first compound 0.05 µg/mL, partner 2 µg/mL | 0.192
S. pneumoniae D39V [8], first compound 0.05 µg/mL, partner 4 µg/mL | 0.11
